Source: PubChem BioAssay AID2060607 (Molecular Pharmacology Branch, DTP, NCI, 2025)

System: 876862-298-R-J1-PDC complex spheroids, viability % test/control
Experiment: Anticancer human tumor 876862-298-R-J1-PDC patient-derived endometrial carcinoma cell line growth inhibition [CLK]
Details: for IC50: curve of first compound; for viability, T/C: stronger effect = lower value; active = viability on the fitted dose curve at most 10% of control; inactive = the rest
Procedure, shortened: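 Patient-derived tumor cells grown as complex spheroids with HUVEC endothelial cells and mesenchymal stem cells, treated with drug combinations. Concentrations descend in half-log steps from near clinical Cmax, or from 10 microM if Cmax unknown.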

[1] = second compound 0.0316 µM, first compound 0.0316 µM
[2] = second compound 0.0316 µM, first compound 0.1 µM
[3] = second compound 0.0316 µM, first compound 0.316 µM
[4] = second compound 0.0316 µM, first compound 1 µM
[5] = second compound 0.0316 µM, first compound 3.16 µM
[6] = second compound 0.0316 µM, first compound 10 µM
[7] = second compound 0.1 µM, first compound 0.0316 µM
[8] = second compound 0.1 µM, first compound 0.1 µM
[9] = second compound 0.1 µM, first compound 0.316 µM
[10] = second compound 0.1 µM, first compound 1 µM
[11] = second compound 0.1 µM, first compound 3.16 µM
[12] = second compound 0.1 µM, first compound 10 µM
[13] = second compound 0.316 µM, first compound 0.0316 µM
[14] = second compound 0.316 µM, first compound 0.1 µM
[15] = second compound 0.316 µM, first compound 0.316 µM
[16] = second compound 0.316 µM, first compound 1 µM
[17] = second compound 0.316 µM, first compound 3.16 µM
[18] = second compound 0.316 µM, first compound 10 µM
[19] = second compound 1 µM, first compound 0.0316 µM
[20] = second compound 1 µM, first compound 0.1 µM
[21] = second compound 1 µM, first compound 0.316 µM
[22] = second compound 1 µM, first compound 1 µM
[23] = second compound 1 µM, first compound 3.16 µM
[24] = second compound 1 µM, first compound 10 µM
[25] = second compound 3.16 µM, first compound 0.0316 µM
[26] = second compound 3.16 µM, first compound 0.1 µM
[27] = second compound 3.16 µM, first compound 0.316 µM
[28] = second compound 3.16 µM, first compound 1 µM
[29] = second compound 3.16 µM, first compound 3.16 µM
[30] = second compound 3.16 µM, first compound 10 µM
[31] = second compound 10 µM, first compound 0.0316 µM
[32] = second compound 10 µM, first compound 0.1 µM
[33] = second compound 10 µM, first compound 0.316 µM
[34] = second compound 10 µM, first compound 1 µM
[35] = second compound 10 µM, first compound 3.16 µM
[36] = second compound 10 µM, first compound 10 µM
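Note: spheroids exposed to drugs for 7 days before readout.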
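Throughout, for viability, T/C: 100% = DMSO vehicle control wells.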

COc1ccc([C@@H](O)c2cc(-c3ncnc4cc(N5CCOCC5)ccc34)c(F)cc2Cl)nn1 + CNC(=O)c1ccc(Nc2nc(OC3CCCC3)c3c(-c4ccc5nc(C)oc5c4)c[nH]c3n2)c(OC)c1
inactive: viability, T/C [1] 72% | viability, T/C [2] 84.4% | viability, T/C [3] 69.5% | viability, T/C [4] 66.1% | viability, T/C [5] 49.4% | viability, T/C [6] 30.5% | viability, T/C [7] 50.6% | viability, T/C [8] 49.3% | viability, T/C [9] 48.7% | viability, T/C [10] 38.8% | viability, T/C [11] 34% | viability, T/C [12] 26.8% | viability, T/C [13] 47% | viability, T/C [14] 39.7% | viability, T/C [15] 47.7% | viability, T/C [16] 33.2% | viability, T/C [17] 27.1% | viability, T/C [18] 21.6% | viability, T/C [19] 31.9% | viability, T/C [20] 28.8% | viability, T/C [21] 30.4% | viability, T/C [22] 26.8% | viability, T/C [23] 21.1% | viability, T/C [24] 15.5% | viability, T/C [25] 25% | viability, T/C [26] 21.2% | viability, T/C [27] 18.5% | viability, T/C [28] 20.3% | viability, T/C [29] 17.2% | viability, T/C [30] 11.9% | viability, T/C [31] 23.2% | viability, T/C [32] 19.2% | viability, T/C [33] 17.9% | viability, T/C [34] 16.3% | viability, T/C [35] 17% | viability, T/C [36] 10.2%
81.2 nM: IC50 (second compound 0.1 µM)
< 31.6 nM: IC50 (second compound 0.316 µM) | IC50 (second compound 1 µM) | IC50 (second compound 3.16 µM) | IC50 (second compound 10 µM)
3010 nM: IC50 (second compound 0.0316 µM)

NC(=O)C(=Cn1cnc(-c2cc(C(F)(F)F)cc(C(F)(F)F)c2)n1)c1cncnc1 + CNC(=O)c1ccc(Nc2nc(OC3CCCC3)c3c(-c4ccc5nc(C)oc5c4)c[nH]c3n2)c(OC)c1
active: viability, T/C (second compound 0.0316 µM, first compound 3 µM) 8.36% | viability, T/C (second compound 0.1 µM, first compound 3 µM) 5.57% | viability, T/C (second compound 0.316 µM, first compound 0.949 µM) 4.08% | viability, T/C (second compound 0.316 µM, first compound 3 µM) 1.39% | viability, T/C (second compound 1 µM, first compound 0.3 µM) 6.44% | viability, T/C (second compound 1 µM, first compound 0.949 µM) 2.52% | viability, T/C (second compound 1 µM, first compound 3 µM) 1.7% | viability, T/C (second compound 3.16 µM, first compound 0.0949 µM) 6.99% | viability, T/C (second compound 3.16 µM, first compound 0.3 µM) 2.31% | viability, T/C (second compound 3.16 µM, first compound 0.949 µM) 2.53% | viability, T/C (second compound 3.16 µM, first compound 3 µM) 1.98% | viability, T/C (second compound 10 µM, first compound 0.0949 µM) 5.85% | viability, T/C (second compound 10 µM, first compound 0.3 µM) 1.75% | viability, T/C (second compound 10 µM, first compound 0.949 µM) 1.16% | viability, T/C (second compound 10 µM, first compound 3 µM) 0.58%
< 9.49 nM: IC50 (second compound 0.1 µM) | IC50 (second compound 0.316 µM) | IC50 (second compound 1 µM) | IC50 (second compound 3.16 µM) | IC50 (second compound 10 µM)
inactive: viability, T/C (second compound 0.0316 µM, first compound 0.00949 µM) 52.2% | viability, T/C (second compound 0.0316 µM, first compound 0.03 µM) 49.7% | viability, T/C (second compound 0.0316 µM, first compound 0.0949 µM) 35.9% | viability, T/C (second compound 0.0316 µM, first compound 0.3 µM) 25% | viability, T/C (second compound 0.0316 µM, first compound 0.949 µM) 9.87% | viability, T/C (second compound 0.1 µM, first compound 0.00949 µM) 37.7% | viability, T/C (second compound 0.1 µM, first compound 0.03 µM) 34.3% | viability, T/C (second compound 0.1 µM, first compound 0.0949 µM) 27.8% | viability, T/C (second compound 0.1 µM, first compound 0.3 µM) 19.4% | viability, T/C (second compound 0.1 µM, first compound 0.949 µM) 8.19% | viability, T/C (second compound 0.316 µM, first compound 0.00949 µM) 35.7% | viability, T/C (second compound 0.316 µM, first compound 0.03 µM) 24.1% | viability, T/C (second compound 0.316 µM, first compound 0.0949 µM) 21.8% | viability, T/C (second compound 0.316 µM, first compound 0.3 µM) 14.3% | viability, T/C (second compound 1 µM, first compound 0.00949 µM) 24.4% | viability, T/C (second compound 1 µM, first compound 0.03 µM) 21.2% | viability, T/C (second compound 1 µM, first compound 0.0949 µM) 15.8% | viability, T/C (second compound 3.16 µM, first compound 0.00949 µM) 19.2% | viability, T/C (second compound 3.16 µM, first compound 0.03 µM) 13.5% | viability, T/C (second compound 10 µM, first compound 0.00949 µM) 17.8% | viability, T/C (second compound 10 µM, first compound 0.03 µM) 13.8%
19.4 nM: IC50 (second compound 0.0316 µM)

CC(=O)O[C@H]1C(=O)[C@@]2(C)[C@H]([C@H](OC(=O)c3ccccc3)[C@]3(O)C[C@H](OC(=O)[C@H](O)[C@@H](NC(=O)c4ccccc4)c4ccccc4)C(C)=C1C3(C)C)[C@]1(OC(C)=O)CO[C@@H]1C[C@@H]2O + CN1CCN(c2cc(C(=O)Nc3cc4cc(-c5cnn(C)c5)ccc4cn3)ccn2)CC1
inactive: viability, T/C [1] 32.4% | viability, T/C [2] 28.7% | viability, T/C [3] 30.5% | viability, T/C [4] 28.1% | viability, T/C [5] 30.7% | viability, T/C [6] 34.8% | viability, T/C [7] 28.6% | viability, T/C [8] 24.5% | viability, T/C [9] 22.7% | viability, T/C [10] 21.3% | viability, T/C [11] 23.5% | viability, T/C [12] 24.1%
active: viability, T/C [13] 1.74% | viability, T/C [14] 1.82% | viability, T/C [15] 2.01% | viability, T/C [16] 2.21% | viability, T/C [17] 2.68% | viability, T/C [18] 4.53% | viability, T/C [19] 0.82% | viability, T/C [20] 0.89% | viability, T/C [21] 0.6% | viability, T/C [22] 0.59% | viability, T/C [23] 0.84% | viability, T/C [24] 0.56% | viability, T/C [25] 0.93% | viability, T/C [26] 0.84% | viability, T/C [27] 0.96% | viability, T/C [28] 0.79% | viability, T/C [29] 0.78% | viability, T/C [30] 0.55% | viability, T/C [31] 0.6% | viability, T/C [32] 0.59% | viability, T/C [33] 0.57% | viability, T/C [34] 0.58% | viability, T/C [35] 0.66% | viability, T/C [36] 0.58%
< 31.6 nM: IC50 (second compound 0.0316 µM) | IC50 (second compound 0.1 µM) | IC50 (second compound 0.316 µM) | IC50 (second compound 1 µM) | IC50 (second compound 3.16 µM) | IC50 (second compound 10 µM)

C=CC(=O)N1CCN(c2nc(=O)n(-c3c(C)ccnc3C(C)C)c3nc(-c4c(O)cccc4F)c(F)cc23)C(C)C1 (stereo not drawn) + CNC(=O)c1ccc(Nc2nc(OC3CCCC3)c3c(-c4ccc5nc(C)oc5c4)c[nH]c3n2)c(OC)c1
inactive: viability, T/C [1] 70.2% | viability, T/C [2] 84.2% | viability, T/C [3] 69% | viability, T/C [4] 90.2% | viability, T/C [5] 80.9% | viability, T/C [6] 60.5% | viability, T/C [7] 52.4% | viability, T/C [8] 54.5% | viability, T/C [9] 46% | viability, T/C [10] 46.9% | viability, T/C [11] 50.2% | viability, T/C [12] 41% | viability, T/C [13] 42.7% | viability, T/C [14] 43.5% | viability, T/C [15] 42.2% | viability, T/C [16] 39.6% | viability, T/C [17] 46.1% | viability, T/C [18] 35.2% | viability, T/C [19] 32.4% | viability, T/C [20] 29.6% | viability, T/C [21] 30.1% | viability, T/C [22] 29.3% | viability, T/C [23] 29.3% | viability, T/C [24] 23.3% | viability, T/C [25] 24% | viability, T/C [26] 25.2% | viability, T/C [27] 23.1% | viability, T/C [28] 21.6% | viability, T/C [29] 23.5% | viability, T/C [30] 13.6% | viability, T/C [31] 24.6% | viability, T/C [32] 19.5% | viability, T/C [33] 19.1% | viability, T/C [34] 22.7% | viability, T/C [35] 20.1% | viability, T/C [36] 10.2%
322 nM: IC50 (second compound 0.1 µM)
> 10000 nM: IC50 (second compound 0.0316 µM)
< 31.6 nM: IC50 (second compound 0.316 µM) | IC50 (second compound 1 µM) | IC50 (second compound 3.16 µM) | IC50 (second compound 10 µM)
